Results taken from patent US9073876B2, “Flap modulators” (JANSSEN PHARMACEUTICA NV, priority 2013, dated 2015).

Columns and labels:
[1] = test system: leukotriene pathway in human whole blood (LTB4 levels); experiment: Human whole blood assay (LTB4); type: cell-based; details: human whole blood diluted 1:1 in RPMI, stimulated with calcium ionophore A23187; single replicate
Procedure, shortened: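 Single-replicate data from at least one healthy donor: compound pre-incubated 15 min at 37° Celsius in 1:1 RPMI-diluted heparinised blood, followed by 30 min calcium ionophore A23187 (7 μg/mL) challenge at 37° Celsius. LTB4 in plasma quantified by kit; IC50 via 4-parameter equation.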

human FLAP = human FLAP (Homo sapiens (Human), UniProt P20292); experiment: FLAP binding assay (HTRF); details: human FLAP-containing membranes, HTRF format; average of two assay plates, duplicates; read-out: FLAP Binding wild type HTRF Ki
Procedure, shortened: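 HTRF ratio read-out; two independent plates, samples in duplicate on each, values averaged across plates.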

Chain of human FLAP (P20292 whole entry): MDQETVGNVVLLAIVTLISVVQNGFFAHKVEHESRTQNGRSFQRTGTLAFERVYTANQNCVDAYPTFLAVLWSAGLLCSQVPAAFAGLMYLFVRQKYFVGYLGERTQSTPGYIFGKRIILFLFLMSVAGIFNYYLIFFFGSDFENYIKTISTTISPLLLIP

Compound	IC50 [1]	Ki (human FLAP)
N#Cc1ccc(Oc2c(C3CCC3)ccc(-c3cnc(N)cn3)c2F)cc1 [Example 101, 4-[3-(5-Aminopyrazin-2-yl)-6-cyclobutyl-2-fluorophenoxy]benzonitrile]	914 nM	23 nM
COC(=O)c1ccc(Oc2c(C3CCC3)ccc(-c3cnc(N)cn3)c2F)cc1 [Example 103, Methyl 4-[3-(5-aminopyrazin-2-yl)-6-cyclobutyl-2-fluorophenoxy]benzoate]	675 nM	35 nM
Nc1cnc(-c2ccc(C3CCC3)c(Oc3ncc(C(F)(F)F)cn3)c2F)cn1 [Example 104, 5-(4-Cyclobutyl-2-fluoro-3-{[5-(trifluoromethyl)pyrimidin-2-yl]oxy}phenyl)pyrazin-2-amine]	2810 nM	100 nM
Nc1cnc(-c2ccc(C3CCC3)c(Oc3ccc(C(F)(F)F)nn3)c2F)cn1 [Example 106, 5-(4-Cyclobutyl-2-fluoro-3-{[6-(trifluoromethyl)pyridazin-3-yl]oxy}phenyl)pyrazin-2-amine]	376 nM	84 nM
N#Cc1ccc(Oc2c(C3CCC3)ccc(-c3cnc(N)cn3)c2F)cn1 [Example 108, 5-[3-(5-Aminopyrazin-2-yl)-6-cyclobutyl-2-fluorophenoxy]pyridine-2-carbonitrile]	1310 nM	24.6 nM
N#Cc1cc(Oc2c(C3CCC3)ccc(-c3cnc(N)cn3)c2F)ccn1 [Example 109, 4-[3-(5-Aminopyrazin-2-yl)-6-cyclobutyl-2-fluorophenoxy]pyridine-2-carbonitrile]	308 nM	8.9 nM
Nc1cnc(-c2ccc(C3CCC3)c(Oc3ccc(C(F)(F)F)cn3)c2F)cn1 [Example 113, 5-(4-Cyclobutyl-2-fluoro-3-{[5-(trifluoromethyl)pyridin-2-yl]oxy}phenyl)pyrazin-2-amine]	608 nM	27 nM
Nc1cnc(-c2ccc(C3CCC3)c(Oc3ccc(S(F)(F)(F)(F)F)cc3)c2F)cn1 [Example 115, 5-{4-Cyclobutyl-2-fluoro-3-[4-(pentafluoro-lambda~6~- sulfanyl)phenoxy]phenyl}pyrazin-2-amine]	1110 nM	297 nM
Nc1cnc(-c2ccc(C3CCC3)c(Oc3ncccc3Cl)c2F)cn1 [Example 122, 5-{3-[(3-Chloropyridin-2-yl)oxy]-4-cyclobutyl-2-fluorophenyl}pyrazin-2-amine]	460 nM	4 nM
CS(=O)(=O)c1ccc(Oc2c(C3CCC3)ccc(-c3cnc(N)cn3)c2F)c(Cl)c1 [Example 123, 5-{3-[2-Chloro-4-(methylsulfonyl)phenoxy]-4-cyclobutyl-2-fluorophenyl}pyrazin-2-amine]	4480 nM	7 nM
Cc1cc(Oc2c(C3CCC3)ccc(-c3cnc(N)cn3)c2F)ccc1S(C)(=O)=O [Example 126, 5-{4-Cyclobutyl-2-fluoro-3-[3-methyl-4-(methylsulfonyl)phenoxy]phenyl}pyrazin-2-amine]	406 nM	10.7 nM
COc1cccnc1Oc1c(C2CCC2)ccc(-c2cnc(N)cn2)c1F [Example 129, 5-{4-Cyclobutyl-2-fluoro-3-[(3-methoxypyridin-2-yl)oxy]phenyl}pyrazin-2-amine]	281 nM	119 nM

Molecules with a lower IC50 [1], results first:

IC50 [1]	Ki (human FLAP)	Compound
33.8 nM	7 nM	Cc1cc(Oc2c(C3CCC3)ccc(-c3cnc(N)cn3)c2F)nc(N)n1 [Example 96, 4-[3-(5-aminopyrazin-2-yl)-6-cyclobutyl-2-fluorophenoxy]-6-methylpyrimidin-2-amine]
153 nM	32 nM	COc1cc(Oc2c(C3CCC3)ccc(-c3cnc(N)cn3)c2F)ncn1 [Example 97, 5-{4-Cyclobutyl-2-fluoro-3-[(6-methoxypyrimidin-4-yl)oxy]phenyl}pyrazin-2-amine]
175 nM	8 nM	Nc1cnc(-c2ccc(C3CCC3)c(Oc3cc(O)ncn3)c2F)cn1 [Example 98, 6-[3-(5-Aminopyrazin-2-yl)-6-cyclobutyl-2-fluorophenoxy]pyrimidin-4-ol]
40.7 nM	6 nM	COc1cc(Oc2c(C3CCC3)ccc(-c3cnc(N)cn3)c2F)nc(N)n1 [Example 99, 4-[3-(5-Aminopyrazin-2-yl)-6-cyclobutyl-2-fluorophenoxy]-6-methoxypyrimidin-2-amine]
12.6 nM	1 nM	COc1nc(N)cc(Oc2c(C3CCC3)ccc(-c3cnc(N)cn3)c2F)n1 [Example 100, 6-[3-(5-Aminopyrazin-2-yl)-6-cyclobutyl-2-fluorophenoxy]-2-methoxypyrimidin-4-amine]
103 nM	2 nM	Nc1cnc(-c2ccc(C3CCC3)c(Oc3cccc(C(F)(F)F)n3)c2F)cn1 [Example 102, 5-(4-Cyclobutyl-2-fluoro-3-{[6-(trifluoromethyl)pyridin-2-yl]oxy}phenyl)pyrazin-2-amine]
177 nM	6.9 nM	COC(=O)c1ccc(Oc2c(C3CCC3)ccc(-c3cnc(N)cn3)c2F)nc1 [Example 107, Methyl 6-[3-(5-aminopyrazin-2-yl)-6-cyclobutyl-2-fluorophenoxy]pyridine-3-carboxylate]
52.2 nM	2.4 nM	N#Cc1cccnc1Oc1c(C2CCC2)ccc(-c2cnc(N)cn2)c1F [Example 110, 2-[3-(5-Aminopyrazin-2-yl)-6-cyclobutyl-2-fluorophenoxy]pyridine-3-carbonitrile]
65.4 nM	1.9 nM	N#Cc1cccc(Oc2c(C3CCC3)ccc(-c3cnc(N)cn3)c2F)n1 [Example 111, 6-[3-(5-Aminopyrazin-2-yl)-6-cyclobutyl-2-fluorophenoxy]pyridine-2-carbonitrile]
181 nM	14.8 nM	N#Cc1ncccc1Oc1c(C2CCC2)ccc(-c2cnc(N)cn2)c1F [Example 112, 3-[3-(5-Aminopyrazin-2-yl)-6-cyclobutyl-2-fluorophenoxy]pyridine-2-carbonitrile]
65.7 nM	10.5 nM	Nc1cnc(-c2ccc(C3CCC3)c(Oc3ncccn3)c2F)cn1 [Example 118, 5-[4-Cyclobutyl-2-fluoro-3-(pyrimidin-2-yloxy)phenyl]pyrazin-2-amine]
26.3 nM	6 nM	Nc1cnc(-c2ccc(C3CCC3)c(Oc3nccc(N)n3)c2F)cn1 [Example 119, 2-[3-(5-Aminopyrazin-2-yl)-6-cyclobutyl-2-fluorophenoxy]pyrimidin-4-amine]
119 nM	3 nM	Nc1cnc(-c2ccc(C3CCC3)c(Oc3ccnc(C(F)(F)F)n3)c2F)cn1 [Example 124, 5-(4-Cyclobutyl-2-fluoro-3-{[2-(trifluoromethyl)pyrimidin-4-yl]oxy}phenyl)pyrazin-2-amine]
84.1 nM	3.7 nM	Nc1cnc(-c2ccc(C3CCC3)c(Oc3ccnc(N)n3)c2F)cn1 [Example 130, 4-[3-(5-Aminopyrazin-2-yl)-6-cyclobutyl-2-fluorophenoxy]pyrimidin-2-amine]
67.9 nM	5.6 nM	Nc1cnc(-c2ccc(C3CCC3)c(Oc3nccc(C(F)(F)F)n3)c2F)cn1 [Example 131, 5-(4-Cyclobutyl-2-fluoro-3-{[4-(trifluoromethyl)pyrimidin-2-yl]oxy}phenyl)pyrazin-2-amine]
133 nM	17 nM	CS(=O)(=O)c1ccc(Oc2c(C3CCC3)ccc(-c3cnc(N)cn3)c2F)c(C#N)c1 [Example 132, 2-[3-(5-Aminopyrazin-2-yl)-6-cyclobutyl-2-fluorophenoxy]-5-(methylsulfonyl)benzonitrile]
